From patent US20240034991A1, “METHOD FOR EFFICIENTLY INDUCING REPROGRAMMING OF HUMAN CELL INTO NEURONAL CELL” (GUANGXI UNIVERSITY, priority 2022, published 2024)

Tested on: Human skin fibroblasts (BJ)
Assay: Immunofluorescence detection of neuronal cell marker antigens in induced human skin fibroblasts (CiNCs)
Assay type: cell-based
Experimental: After 48 h of induction, the induction medium was replaced with a neuronal cell maturation medium to continue promoting further maturation of the CiNCs, and the neuronal cell maturation medium was replaced with a neuronal cell medium after 72 h for long-term culture.
Immunofluorescence detection of neuronal cell marker antigens was conducted on human skin fibroblasts and cells induced by neuronal cell induction (N2B27+10 μM Forskolin) for 48 h. The method included the following specific steps: human skin fibroblasts and F-48h cells in a culture plate were fixated with 4% paraformaldehyde (PFA) at room temperature for 30 min; the cells were washed with a blocking solution three times, 5 min in each time; the cells were permeabilized by 1% TritonX-100 for 15 min at room temperature; the cells were washed with the blocking solution three times again; non-specific sites were blocked with 5% donkey serum, and then blocked for 2 h at room temperature; the cells were washed three times with TBP (Tritonx-Bovine albumin-Phosphate Buffer Saline) for 5 min in each time; a primary antibody was added for incubation at 4° C. overnight; on a next day, the culture plate was placed at room temperature, rewarmed for 20 min, and then washed with TBP three times for 5 min in each time, a secondary antibody and a Hoechst mixture were added in the dark, and incubated at room temperature for 1 h; after washing three times with a TBP solution, fluorescence microscope observation and photographing experiment were conducted.

Question: Which “TUJ1 positive rate of CiNCs” value (N2B27+KSR+10 μM Forskolin, 48 h after induction) does the source give for `C=C[C@@]1(C)CC(=O)[C@]2(O)[C@@]3(C)[C@@H](O)CCC(C)(C)[C@@H]3[C@H](O)[C@H](OC(C)=O)[C@@]2(C)O1` [Forskolin] here?
Answer: The value was 80%.

Question: With `c1ccc2c(-c3cnn4cc(-c5ccc(N6CCNCC6)cc5)cnc34)ccnc2c1` [LDN193189] as the compound, how does the “Expression of neuronal cell marker antigens TUJ1, MAP2 and NeuN (immunofluorescence, FIG. 5)” value (“Expression” for short) (N2B27+KSR+5 μM compound) read?
Answer: Its value is “expressed neuronal cell marker antigens TUJ1, MAP2 and NeuN”.

Question: Which “Expression” value (N2B27+KSR+5 μM compound) does the source give for `C[S+]([O-])c1ccc(-c2nc(-c3ccncc3)c(-c3ccc(F)cc3)[nH]2)cc1` (stereo not shown) [SB203580] here?
Answer: The value was “expressed neuronal cell marker antigens TUJ1, MAP2 and NeuN”.

Question: How did the “Expression” value (N2B27+KSR+10 μM compound) turn out when `Nc1ncnc2c1ncn2[C@@H]1O[C@@H]2COP(=O)(O)O[C@H]2[C@H]1O` [cAMP, cyclic Adenosine Monophosphate] was run?
Answer: Its value is “expressed neuronal cell marker antigens TUJ1, MAP2 and NeuN”.
